Values after ≈ are worked out from the molar mass of the structure shown.

One data set deals with human IRAK4 (Homo sapiens (Human), UniProt Q9NWZ3). Put plainly: IRAK4 enzymatic assay (Transcreener fluorescence polarization, ADP detection). To be noted: recombinant full-length IRAK4; 125 uM ATP; 90 min. The class given is biochemical. Here is the method: Compounds were assayed for inhibition of human IRAK4 and IRAK1 catalytic activity using recombinant enzyme produced from insect cells. Full-length IRAK4 protein, carrying an N-terminal His6-Tag, was obtained from Life Technologies (Carlsbad, Calif., USA). The IRAK1 construct was produced internally and was comprised of IRAK1 residues Arg194 to Ser712, preceded by an NH2-terminal His6 tag and the coding sequence for glutathione-S-transferase.
Sequence of human IRAK4 (Q9NWZ3 whole entry, the tested form may be a part): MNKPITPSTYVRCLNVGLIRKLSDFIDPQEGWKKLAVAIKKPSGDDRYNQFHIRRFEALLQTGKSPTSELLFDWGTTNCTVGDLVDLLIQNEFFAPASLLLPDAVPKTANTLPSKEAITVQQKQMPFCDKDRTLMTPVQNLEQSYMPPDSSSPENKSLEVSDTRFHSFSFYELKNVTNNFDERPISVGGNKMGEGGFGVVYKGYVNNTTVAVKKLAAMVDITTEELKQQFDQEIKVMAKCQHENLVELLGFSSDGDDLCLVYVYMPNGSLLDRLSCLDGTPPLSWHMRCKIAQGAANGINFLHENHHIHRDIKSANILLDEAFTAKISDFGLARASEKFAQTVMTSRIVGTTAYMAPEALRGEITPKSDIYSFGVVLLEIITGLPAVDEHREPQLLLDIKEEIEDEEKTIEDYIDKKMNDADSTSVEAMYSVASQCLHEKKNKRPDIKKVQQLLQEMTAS
Kinase activities were assayed using the Transcreener-Fluorecescence polarization platform (BelBrook Labs, Madison, Wis., USA) that measures amounts of the reaction product, ADP. […] Final IRAK4 assay conditions were 1.25 nM IRAK4; 125 uM ATP; 10 uM MgC2; 125 uM peptide in reaction buffer (25 mM HEPES (pH7.4); 2 mM Dithiothreitol; 0.015% Brij-35; and 0.5% dimethyl sulfoxide. The IRAK1 activity was optimized similarly, yielding final assay conditions of […] IRAK1; 62.5 uM ATP; 5 uM MgCl2, and 62.5 uM IRAK1 peptide in reaction buffer for 60 min.
Assays of compounds for kinase inhibition were performed using inhibitors serially-diluted in dimethyl sulfoxide, which was accomplished with a LabCyte Echo 555 liquid dispenser. 384 well assay plates spotted with compound received 4 ul of a 2× substrate (ATP+peptide) mix in reaction buffer, followed by 4 ul of 2× enzyme diluted in reaction buffer. Reactions were halted at 60 (IRAK1) or 90 (IRAK4) min by addition of 6 ul of detection buffer, containing EDTA ([…] final concentration), 0.95 ug of the ADP-binding antibody ADP2, ADP tracer (3 nM final concentration), and […] HEPES. Following a 1 hr incubation, fluorescence polarization of the ADP2-antibody::TRACER complex was read on a Tecan M1000 plate reader using a 635/20 excitation filter in combination with a 670/20 emission filter. Delta milli-P values were analyzed using Genedata software to fit dose-response curves and compute compound Ki values, using ATP Km values of 642 um and 83.2 uM for IRAK4 and IRAK1, respectively. Table 3 provides IRAK4 Ki values for representative compounds of the present invention.
A general note: Polarisation of emitted light reports the rotation of a fluorescent probe.

A further data set is described as follows: Kinetic solubility assay. The class given is physicochemical. As to conditions: for solubility kinetic at 24 h: PBS buffer with 2% DMSO, aqueous buffer, kinetic from dmso stock, PBS buffer pH 7.4, 2% DMSO, 24 hours shaking at room temperature, UHPLC-CLND; for Fold improvement in kinetic solubility: example compound versus its matched pair phenyl compound. Here is the method: The kinetic solubility assay started with compound DMSO stock solutions. This assay used Millipore Multiscreen 96-well filter plates for the 24 hour equilibration shaking. Samples were prepared by adding 4 μL of the 10 mM compound DMSO stock solutions into 196 μL of PBS buffer pH 7.4 in the 96-well filter plates, yielding a compound concentration of 200 μM and 2% DMSO. The filter plate was sealed with aluminum sealing film and shaken at room temperature for 24 hours at 1000 rpm. When shaking has completed, the solutions were filtered into a clean 96-well plate utilizing a vacuum manifold. After filtration, some precipitate is often observed at the bottom of the filtration plate wells. Most of the precipitates appear to be crystalline under a polarizing light microscope. The filtrate samples were diluted by a factor of 2 using PBS pH7.4 buffer and then transferred to a 384-well plate for analysis by UHPLC-CLND (CLND: Chemiluminescence nitrogen detector). 5 μL of each sample was injected twice into the UHPLC-CLND for two repeat analysis.
Samples were detected and analyzed using UV 254 nm and CLND. UV 254 nm is used primarily to confirm the sample purity but in rare cases, is also used to quantify the concentration of compounds with no nitrogens, where additional work is done to create a compound specific calibration curve. The identification of CLND target peaks of each compound were confirmed by LCMS. Sample quantification was accomplished by CLND peak intensity, the calibration curve, and the number of nitrogen contained in the compound. One calibration curve of caffeine was used for solubility quantitative determination. A fresh calibration curve was created for every batch. The number of nitrogens in a compound used for this quantification was corrected for the actual configuration of the nitrogen in the compound.

The nature of data set [1]: Plasma protein binding using rapid equilibrium dialysis (RED). The class given is in vitro ADME. As to conditions: pH 7.4, human plasma, 37° C., read-out: Human PPB (converted). How it is done:
Plasma protein binding was measured in duplicate using rapid equilibrium dialysis (RED) device ((Thermo Scientific Pierce) in a 96-well format. Briefly, 10.0 μL drug or control compounds (0.5 mM in DMSO) was mixed with 1000 μL plasma (pH adjusted to 7.4) from various species (BioreclamationIVT). Aliquots of 300 μL drug/plasma mixture were placed into the donor side chamber of a single-use RED plate, and 500 μL aliquots of PBS buffer were placed into the adjacent chamber as the receiver side. The plate was incubated on an orbital shaker at 400 rpm, at 37° C. for 4 hours. After completion of incubation, 50 μL aliquots from the PBS buffer side were mixed with 5 μL of blank plasma matrix, and 5 μL from the donor side (plasma) were mixed with 50 μL blank PBS buffer. All samples were then crashed with 200 μL acetonitrile (containing internal standard) to precipitate plasma proteins. The samples were centrifuged at 3750 rpm for 10 min to pellet the proteins. The supernatants were carefully transferred to a fresh 96-well plate, and diluted with an equivalent volume of water. The samples were then analyzed by LC-MS/MS (ABI 4000, ABI Sciex). Data acquisition and processing was performed with Analyst 1.6.1 and Multiquant 2.1. The percent of protein binding and fraction unbound (fu) in matrix was calculated from taking the ratio of responses (peak areas) on the receiver side (buffer) to those on the donor side (plasma). The ratios were normalized to the internal standard.

As to `CC1(C)Cc2cc(NC(=O)c3cnn4cccnc34)c(N3CCN(CC(F)F)CC3)nc2O1` [Example 9, N-(6-(4-(2,2-Difluoroethyl)piperazin-1-yl)-2,2-dimethyl-2,3-dihydrofuro[2,3-b]pyridin-5-yl)pyrazolo[1,5-a]pyrimidine-3-carboxamide], the Ki (as a rule, the dissociation constant of the complex between target and ligand, obtained from inhibition or displacement) on human IRAK4 turned out to be 7.6 nM. In the data set “Kinetic solubility assay”, the solubility (kinetic) – broadly, the concentration staying in solution when a stock, usually in DMSO, is diluted into the medium – at 24 h was determined as 137 µM (≈ 62.7 µg/mL) and the “Fold improvement in kinetic solubility” value is reported as 137.0. For the same compound, the fraction unbound at 4 h, 5 µM in data set [1] was 0.123.

Consider `CC1(C)Cc2cc(NC(=O)c3cnn4cccnc34)c(N3CCN(CC(N)=O)CC3)nc2O1` [Example 6, N-[6-[4-(2-amino-2-oxo-ethyl)piperazin-1-yl]-2,2-dimethyl-3H-furo[2,3-b]pyridin-5-yl]pyrazolo[1,5-a]pyrimidine-3-carboxamide], for which the Ki on human IRAK4 is 4 nM. Further, in “Kinetic solubility assay”, the solubility (kinetic) at 24 h is 143 µM (≈ 64.4 µg/mL) and the “Fold improvement in kinetic solubility” value worked out at 14.6. For the same compound, in data set [1], the fraction unbound at 4 h, 5 µM is 0.226.

On to `C[C@]1(CO)Cc2cc(NC(=O)c3cnn4cccnc34)c(N3CCN(CC(F)F)CC3)nc2O1` (stereo in doubt) [Example 21, N-[rac-(2R)-6-[-(2,2-difluoroethyl)piperazin-l-yl]-2-(hydroxymethyl)-2-methyl-3H-furo[2,3-b]pyridin-5-yl]pyrazolo[1,5-a]pyrimidine-3-carboxamide], for which the Ki on human IRAK4 turned out to be 13 nM. In “Kinetic solubility assay”, the kinetic solubility at 24 h was determined as 124 µM (≈ 58.7 µg/mL) and the “Fold improvement in kinetic solubility” value is recorded as 27.0. Also, the fraction unbound at 4 h, 5 µM in data set [1] is 0.363.

(Values after US11434250B2, “Pyrazolo[1,5a]pyrimidine derivatives as IRAK4 modulators” (Genentech, Inc., priority 2017, dated 2022).)
